Reference: US20260285888A1, “HETEROCYCLIC COMPOUND AND USE THEREOF” (OTSUKA PHARMACEUTICAL CO., LTD., priority 2023, published 2026)

Assays:
[1] = Study for confirmation of conversion to brexpiprazole in a buffer (stability of the evaluation compounds); type: physicochemical; conditions: in buffer, average of duplicate; for Concentration of brexpiprazole formed: 60-minute reaction sample; for Concentration of evaluation compound decreased: decrease in 60-minute vs 0-minute reaction sample
Summary of the method: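 Compounds (final 1 μmol/L, from 100 μmol/L working solutions) incubated in buffer at 37° C. for 0 or 60 min, in duplicate, after 3 min pre-incubation of the reaction solution. Reactions stopped with acetonitrile/isopropanol (4:1) containing internal standards; compound and formed brexpiprazole quantified against 0.01–1 μmol/L calibration samples.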

in vitro = type: cell-based, human; conditions: human, differentiated hl-60 cells, 300 μmol/L, about 24 hours, PMA-differentiated HL-60 cells, LDH; no-treatment 0%, cell lysis buffer 100%; read-out: cytotoxicity (%) Evaluation compound results
Summary of the method: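 HL-60 cells differentiated ~72 h with 10 nM PMA, then exposed ~24 h to compound at 300 μmol/L final in RPMI with 2% FBS. LDH release in supernatant gave cytotoxicity % scaled between untreated (0%) and lysis-buffer (100%) groups; triplicate.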

Structure (SMILES) | Concentration of brexpiprazole formed [1] [nM] | Concentration of evaluation compound decreased [1] [nM] | cytotoxicity at 24 h, 300 µM (in vitro) [%]
CC(C)OCCOCCOCCOC(=O)OCOP(=O)([O-])OC[N+]1(CCCCOc2ccc3ccc(=O)[nH]c3c2)CCN(c2cccc3sccc23)CC1 [EX 137, (4-(benzo[b]thiophen-4-yl)-1-(4-((2-oxo-1,2-dihydroquinolin-7-yl)oxy)butyl)piperazin-1-ium-1-yl)methyl (14-methyl-3-oxo-2,4,7,10,13-pentaoxapentadecyl) phosphate] | 0 | 90 | -8
COC(=O)[C@H](COP(=O)([O-])OC[N+]1(CCCCOc2ccc3ccc(=O)[nH]c3c2)CCN(c2cccc3sccc23)CC1)NC(=O)OC(C)(C)C [EX 83, (S)-(4-(benzo[b]thiophen-4-yl)-1-(4-((2-oxo-1,2-dihydroquinolin-7-yl)oxy)butyl)piperazin-1-ium-1-yl)methyl (2-(tert-butoxycarbonyl)amino)-3-methoxy-3-oxopropyl) phosphate] | 0 | 70 | -5
CCOC(=O)CCOC(=O)OCOP(=O)([O-])OC[N+]1(CCCCOc2ccc3ccc(=O)[nH]c3c2)CCN(c2cccc3sccc23)CC1 [EX 143, (4-(benzo[b]thiophen-4-yl)-1-(4-((2-oxo-1,2-dihydroquinolin-7-yl)oxy)butyl)piperazin-1-ium-1-yl)methyl ((((3-ethoxy-3-oxopropoxy)carbonyl)oxy)methyl) phosphate] | 0 | 50 | -5
CCCCOCCOCCOC(=O)OCOP(=O)([O-])OC[N+]1(CCCCOc2ccc3ccc(=O)[nH]c3c2)CCN(c2cccc3sccc23)CC1 [EX 135, (4-(benzo[b]thiophen-4-yl)-1-(4-((2-oxo-1.2-dihydroquinolin-7-yl)oxy)butyl)piperazin-1-ium-1-yl)methyl (3-oxo-2,4,7,10-tetraoxatetradecyl) phosphate] | 0 | 70 | -4
CC(C)(CO)COP(=O)([O-])OC[N+]1(CCCCOc2ccc3ccc(=O)[nH]c3c2)CCN(c2cccc3sccc23)CC1 [EX 48, (4-(benzo[b]thiophen-4-yl)-1-(4-((2-oxo-1,2-dihydroquinolin-7-yl)oxy)butyl)piperazin-1-ium-1-yl)methyl (3-hydroxy-2,2-dimethylpropyl) phosphate] | 0 | -30 | -9
C[C@H](NP(=O)([O-])OC[N+]1(CCCCOc2ccc3ccc(=O)[nH]c3c2)CCN(c2cccc3sccc23)CC1)C(=O)OC(C)(C)C [EX 157, (4-(benzo[b]thiophen-4-yl)-1-(4-((2-oxo-1,2-dihydroquinolin-7-yl)oxy)butyl)piperazin-1-ium-1-yl)methyl (S)-(1-(tert-butoxy)-1-oxopropan-2-yl)phosphoramidate] | 0 | 80 | -4
O=c1ccc2ccc(OCCCC[N+]3(COP(=O)([O-])OCCCCCO)CCN(c4cccc5sccc45)CC3)cc2[nH]1 [EX 92] | 0 | 110 | -7
O=C(OCOP(=O)([O-])OC[N+]1(CCCCOc2ccc3ccc(=O)[nH]c3c2)CCN(c2cccc3sccc23)CC1)N1CCOCC1 [EX 160, (4-(benzo[b]thiophen-4-yl)-1-(4-((2-oxo-1,2-dihydroquinolin-7-yl)oxy)butyl)piperazin-1-ium-1-yl)methyl (((morpholine-4-carbonyl)oxy)methyl) phosphate] | 0 | -10 | 9
CC1(C)O[C@H]2[C@@H](O1)[C@@H](COP(=O)([O-])OC[N+]1(CCCCOc3ccc4ccc(=O)[nH]c4c3)CCN(c3cccc4sccc34)CC1)O[C@@H]1OC(C)(C)O[C@@H]12 [EX 100, (4-(benzo[b]thiophen-4-yl)-1-(4-((2-oxo-1,2-dihydroquinolin-7-yl)oxy)butyl)piperazin-1-ium-1-yl)methyl (((3aR,5R,5aS,8aS,8bR)-2,2,7,7-tetramethyltetrahydro-5H-bis([1,3]dioxolo)[4,5-b:4′,5′-d]pyran-5-yl)methyl)phosphate] | 0 | 50 | -3
CCOC(=O)CCCCCOC(=O)OCOP(=O)([O-])OC[N+]1(CCCCOc2ccc3ccc(=O)[nH]c3c2)CCN(c2cccc3sccc23)CC1 [EX 144] | 0 | 120 | 18
CCCCOCCOP(=O)([O-])OC[N+]1(CCCCOc2ccc3ccc(=O)[nH]c3c2)CCN(c2cccc3sccc23)CC1 [EX 96, (4-(benzo[b]thiophen-4-yl)-1-(4-((2-oxo-1,2-dihydroquinolin-7-yl)oxy)butyl)piperazin-1-ium-1-yl)methyl (2-butoxyethyl) phosphate] | 0 | 30 | 12
COCCCCOP(=O)([O-])OC[N+]1(CCCCOc2ccc3ccc(=O)[nH]c3c2)CCN(c2cccc3sccc23)CC1 [EX 50, (4-(benzo[b]thiophen-4-yl)-1-(4-((2-oxo-1,2-dihydroquinolin-7-yl)oxy)butyl)piperazin-1-ium-1-yl)methyl (4-methoxybutyl) phosphate] | 0 | 10 | -8
CCOCCOCCOC(=O)OCOP(=O)([O-])OC[N+]1(CCCCOc2ccc3ccc(=O)[nH]c3c2)CCN(c2cccc3sccc23)CC1 [EX 134, (4-(benzo[b]thiophen-4-yl)-1-(4-((2-oxo-1,2-dihydroquinolin-7-yl)oxy)butyl)piperazin-1-ium-1-yl)methyl (3-oxo-2,4,7,10-tetraoxadodecyl) phosphate] | 0 | 70 | -7
CC(C)(O)CCOP(=O)([O-])OC[N+]1(CCCCOc2ccc3ccc(=O)[nH]c3c2)CCN(c2cccc3sccc23)CC1 [EX 41, (4-(benzo[b]thiophen-4-yl)-1-(4-((2-oxo-1,2-dihydroquinolin-7-yl)oxy)butyl)piperazin-1-ium-1-yl)methyl (3-hydroxy-3-methylbutyl) phosphate] | 0 | 70 | -3
O=C(OCCCN1CCOCC1)OCOP(=O)([O-])OC[N+]1(CCCCOc2ccc3ccc(=O)[nH]c3c2)CCN(c2cccc3sccc23)CC1 [EX 146, (4-(Benzo[b]thiophen-4-yl)-1-(4-((2-oxo-1,2-dihydroquinolin-7-yl)oxy)butyl)piperazin-1-ium-1-yl)methyl ((((3-morpholinopropoxy)carbonyl)oxy)methyl) phosphate] | 0 | 110 | 1
COCCOC(=O)OCOP(=O)([O-])OC[N+]1(CCCCOc2ccc3ccc(=O)[nH]c3c2)CCN(c2cccc3sccc23)CC1 [EX 33, (4-(benzo[b]thiophen-4-yl)-1-(4-((2-oxo-1,2-dihydroquinolin-7-yl)oxy)butyl)piperazin-1-ium-1-yl)methyl ((((2-methoxyethoxy)carbonyl)oxy)methyl) phosphate] | 0 | 0 | -7
COCCOP(=O)([O-])OC[N+]1(CCCCOc2ccc3ccc(=O)[nH]c3c2)CCN(c2cccc3sccc23)CC1 [EX 12, (4-(benzo[b]thiophen-4-yl)-1-(4-((2-oxo-1,2-dihydroquinolin-7-yl)oxy)butyl)piperazin-1-ium-1-yl)methyl (2-methoxyethyl) phosphate] | 0 | 20 | -7
CC(C)OCCOC(=O)OCOP(=O)([O-])OC[N+]1(CCCCOc2ccc3ccc(=O)[nH]c3c2)CCN(c2cccc3sccc23)CC1 [EX 133, (4-(benzo[b]thiophen-4-yl)-1-(4-((2-oxo-1,2-dihydroquinolin-7-yl)oxy)butyl)piperazin-1-ium-1-yl)methyl ((((2-isopropoxyethyloxy)carbonyl)oxy)methyl) phosphate] | 0 | 140 | -5
CCCOCCOP(=O)([O-])OC[N+]1(CCCCOc2ccc3ccc(=O)[nH]c3c2)CCN(c2cccc3sccc23)CC1 [EX 95, (4-(benzo[b]thiophen-4-yl)-1-(4-((2-oxo-1.2-dihydroquinolin-7-yl)oxy)butyl)piperazin-1-ium-1-yl)methyl (2-propoxyethyl) phosphate] | 0 | -10 | -4
CC(C)COCCOP(=O)([O-])OC[N+]1(CCCCOc2ccc3ccc(=O)[nH]c3c2)CCN(c2cccc3sccc23)CC1 [EX 51, (4-(benzo[b]thiophen-4-yl)-1-(4-((2-oxo-1,2-dihydroquinolin-7-yl)oxy)butyl)piperazin-1-ium-1-yl)methyl (2-isobutoxyethyl) phosphate] | 0 | 50 | -9
